Holding throughout (settings): normalized on Arabidopsis wild-type HPPD
Assay [1] relates to Chlamydomonas HPPD1. Put plainly: HPPD activity assay, Chlamydomonas HPPD1. The assay is classed as biochemical, Chlamydomonas reinhardtii. The protocol: (§1) HPPD produces homogentisic acid and CO2 from 4-hydroxyphenylpyruvate (4-HPP) and O2. The activity assay for HPPD is based on the analysis of homogentisic acid by reversed phase HPLC.
(§2) The assay mixture can contain 150 mM potassium phosphate buffer pH 7.0, 50 mM L-ascorbic acid, 1 μM FeSO4 and 7 μg of purified enzyme in a total volume of 1 ml.
(§3) Inhibitors are dissolved in DMSO (dimethylsulfoxide) to a concentration of 20 mM or 0.5 mM, respectively. From this stock solution serial five-fold dilutions are prepared in DMSO, which are used in the assay. The respective inhibitor solution accounts for 1% of the assay volume. Thus, final inhibitor concentrations range from 200 μM to 2.5 nM or from 5 μM to 63 pM, respectively. After a preincubation of 30 min the reaction is started by adding 4-HPP to a final concentration of 0.1 mM. The reaction is allowed to proceed for 120 min at room temperature. The reaction is stopped by addition of 100 μl of 4.5 M phosphoric acid.
(§4) Activities are normalized by setting the uninhibited enzyme activity to 100%. IC50 values are calculated using non-linear regression.
(§5) The assay mixture can contain 150 mM potassium phosphate buffer pH 7.0, 50 mM L-ascorbic acid, 100 μM Catalase (Sigma-Aldrich), 1 μM FeSO4 and 0.2 units of purified HPPD enzyme in a total volume of 505 μl. […]
(§6) Inhibitors are dissolved in DMSO (dimethylsulfoxide) to a concentration of 0.5 mM. […] IC50 values are calculated using non-linear regression.
(§7) Using methods which are described in the above examples or well known in the art, purified, recombinant wildtype HPPD enzymes are characterized with respect to their kinetic properties and sensitivity towards HPPD inhibiting herbicides. Apparent michaelis constants (Km) and maximal reaction velocities (Vmax) are calculated by non-linear regression with the software GraphPad Prism 5 (GraphPad Software, La Jolla, USA) using a substrate inhibition model. […] Weighted means (by standard error) of Km and […] values are calculated from at least three independent experiments. […]

Assay [2] concerns Sorghum HPPD. Put plainly: HPPD activity assay, Sorghum HPPD. In kind it is biochemical. The protocol: as §1, §2, §3, §4, §5, §6, §7
Assay [3] deals with Alopecurus HPPD. Put plainly: HPPD activity assay, Alopecurus HPPD. The assay is classed as biochemical. As for the experimental part:
as §1, §2, §3, §4, §5, §6, §7

Assay [4] deals with Avena HPPD. The assay is described as follows: HPPD activity assay, Avena HPPD. The assay is classed as biochemical, Avena sativa. As for the experimental part: as §1, §2, §3, §4
(§8) The assay mixture can contain 150 mM potassium phosphate buffer pH 7.0, 50 mM L-ascorbic acid, 100 μM Catalase (Sigma-Aldrich), 1 μM FeSO4 and 0.2 units of purified HPPD enzyme in a total volume of 505 μl. 1 unit is defined as the amount of enzyme that is required to produce 1 nmol of HGA per minute at 20° C.
(§9) Inhibitors are dissolved in DMSO (dimethylsulfoxide) to a concentration of 0.5 mM. From this stock solution serial five-fold dilutions are prepared in DMSO, which are used in the assay. The respective inhibitor solution accounts for 1% of the assay volume. Thus, final inhibitor concentrations range from 5 μM to 320 pM, respectively. Activities are normalized by setting the uninhibited enzyme activity to 100%. IC50 values are calculated using non-linear regression.
as §7
(§10) Field performance of the HPPD enzyme, which is used as a herbicide tolerance trait, may depend not only on its lack of sensitivity towards HPPD inhibiting herbicides but also on its activity. To assess the potential performance of a herbicide tolerance trait a tolerance index (TI) is calculated using the following formula: […]

The subject of assay [5] is Poa HPPD. Put plainly: HPPD activity assay, Poa HPPD. In kind it is biochemical. As for the experimental part: as §1, §2, §3, §4, §5, §6, §7
Assay [6] has as its target T1, Arabidopsis HPPD (SEQ ID: 53) (Arabidopsis thaliana, UniProt P93836).
T1 construct: His6 (N); made in house; host or cells: E. coli BL21 (DE3)
T1 sequence (P93836 1-445): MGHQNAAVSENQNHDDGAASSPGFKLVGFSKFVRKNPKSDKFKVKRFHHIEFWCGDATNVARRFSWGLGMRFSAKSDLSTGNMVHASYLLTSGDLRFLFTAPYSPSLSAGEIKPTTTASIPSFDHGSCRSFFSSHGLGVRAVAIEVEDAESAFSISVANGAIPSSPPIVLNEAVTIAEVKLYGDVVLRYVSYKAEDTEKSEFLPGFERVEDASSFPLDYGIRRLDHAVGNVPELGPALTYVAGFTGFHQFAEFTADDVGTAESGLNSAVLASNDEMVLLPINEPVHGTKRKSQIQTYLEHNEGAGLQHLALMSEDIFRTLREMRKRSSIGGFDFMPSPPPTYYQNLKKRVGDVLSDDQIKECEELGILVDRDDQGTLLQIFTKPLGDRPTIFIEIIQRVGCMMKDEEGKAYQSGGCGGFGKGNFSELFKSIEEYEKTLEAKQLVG
Put plainly: HPPD activity assay, Arabidopsis wild-type HPPD. The assay is classed as biochemical. Also on record: key to Normalized tolerance index TI: tolerance index relative to Arabidopsis wild-type HPPD (= 1). As for the experimental part:
as §1, §2
(§11) Inhibitors are dissolved in DMSO (dimethylsulfoxide) to a concentration of 20 mM or 0.5 mM, respectively. From this stock solution serial five-fold dilutions are prepared in DMSO, which are used in the assay. The respective inhibitor solution accounts for 1% of the assay volume. […] After a preincubation of 30 min the reaction is started by adding 4-HPP to a final concentration of 0.1 mM. The reaction is allowed to proceed for 120 min at room temperature. The reaction is stopped by addition of 100 μl of 4.5 M phosphoric acid.
as §4, §8
Inhibitors are dissolved in DMSO (dimethylsulfoxide) to a concentration of 0.5 mM. From this stock solution serial five-fold dilutions are prepared in DMSO, which are used in the assay. The respective inhibitor solution accounts for 1% of the assay volume. […] Activities are normalized by setting the uninhibited enzyme activity to 100%. IC50 values are calculated using non-linear regression.
Using methods which are described in the above examples or well known in the art, purified, recombinant wildtype HPPD enzymes are characterized with respect to their kinetic properties and sensitivity towards HPPD inhibiting herbicides. Apparent michaelis constants (Km) and maximal reaction velocities (Vmax) are calculated by non-linear regression with the software GraphPad Prism 5 (GraphPad Software, La Jolla, USA) using a substrate inhibition model.
as §10
Easy comparison and ranking of each trait is enabled by normalizing tolerance indexes on Arabidopsis wild-type HPPD.

The target in assay [7] is T2, Arabidopsis HPPD variant M335H, P336A (Arabidopsis thaliana, UniProt P93836, M335H/P336A).
T2 construct: PCR-based site directed mutagenesis of pEXP5-NT/TOPO®-AtHPPD is done; His6 (N); made in house; host or cells: E. coli BL21 (DE3)
The assay is described as follows: HPPD activity assay, Arabidopsis HPPD mutant M335H, P336A. The assay is classed as biochemical. The protocol:
as §1, §2, §11, §4, §8
Inhibitors are dissolved in DMSO (dimethylsulfoxide) to a concentration of 0.5 mM. […] IC50 values are calculated using non-linear regression. […]
Purified, mutant HPPD enzymes are obtained by the methods described above. […] Apparent michaelis constants (Km) and maximal reaction velocities (Vmax) are calculated by non-linear regression with the software GraphPad Prism 5 (GraphPad Software, La Jolla, USA) using a substrate inhibition model.
Field performance of the optimized HPPD enzyme, which is used as a herbicide tolerance trait may depend not only on its lack of sensitivity towards HPPD inhibiting herbicides but also on its activity. To assess the potential performance of a herbicide tolerance trait a tolerance index (TI) is calculated using the following formula: […]

Assay [8] relates to Lolium HPPD. Put plainly: HPPD activity assay, Lolium HPPD. The assay is classed as biochemical. The protocol: as §1, §2, §3, §4, §8, §9, §7, §10

T2 sequence (P93836 whole entry M335H/P336A): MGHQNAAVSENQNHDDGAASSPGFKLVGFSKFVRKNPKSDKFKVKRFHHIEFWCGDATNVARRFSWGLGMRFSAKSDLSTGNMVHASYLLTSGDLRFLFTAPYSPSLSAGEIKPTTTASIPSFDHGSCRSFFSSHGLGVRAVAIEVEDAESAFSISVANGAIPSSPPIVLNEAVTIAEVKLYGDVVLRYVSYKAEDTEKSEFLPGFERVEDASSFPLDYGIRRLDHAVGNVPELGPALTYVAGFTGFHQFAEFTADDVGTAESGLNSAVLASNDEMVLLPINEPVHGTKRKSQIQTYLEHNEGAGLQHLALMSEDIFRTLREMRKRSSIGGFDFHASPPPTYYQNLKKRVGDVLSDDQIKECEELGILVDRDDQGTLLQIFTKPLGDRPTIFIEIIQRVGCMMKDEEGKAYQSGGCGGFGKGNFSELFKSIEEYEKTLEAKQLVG

As for `CC1CC(c2c(Cl)ccc(C3=C(O)c4ncccc4CS3(=O)=O)c2Cl)=NO1` (stereo not drawn) [Inhibitor 4, 7-[2,4-dichloro-3-(5-methyl-4,5-dihydroisoxazol-3-yl)phenyl]-6,6-dioxo-5H-thiopyrano[4,3-b]pyridin-8-ol], the “Normalized tolerance index TI” value is 1.3 in assay [1]; 3.7 in assay [2]; 3.5 in assay [3]; 5.3 in assay [4]; 1.2 in assay [5]; 1 in assay [6] (Arabidopsis HPPD Wildtype, Table 15). Moreover, the “Normalized tolerance index TI” value is 1 in assay [6] (Arabidopsis HPPD, Table 12); 7.4 in assay [7]; 4.5 in assay [8].

The values are drawn from patent US20140357487A1, “PLANTS HAVING INCREASED TOLERANCE TO HERBICIDES” (BASF SE, priority 2011, published 2014).
